# Assays:
# [1] = system: TNF-α production in LPS-activated macrophages; assay: TNF-α production by LPS-activated human macrophages (ELISA); assay type: cell-based; details: ATT 10 μM, LPS 1 μg/mL, 48 hours, FIG. 1A
# Experimental: (§1) CD14^+ human macrophages isolated from healthy donors were cultured with LPS (1 μg/mL) and ATT (10 μM) for 48 hours. At the end of the culture, the supernatants were collected and cytokine production was evaluated.
# (§2) Production of TNF-α was measured by ELISA. Production of TNF-α and IL-10 were measured using a multiplex detection technique.
# [2] = system: Adult human primary ventricular cardiomyocytes; assay: Human primary cardiomyocyte contractility assay after exposure to Kawasaki patient serum; assay type: cell-based; details: 12 hours exposure to KD serum + ATT 1 μM
# Experimental: Adult human primary ventricular cardiomyocytes were isolated from two healthy donors by AnaBios (San Diego, USA), using their CardioPRIME™ proprietary protocol.
# These isolated cardiomyocytes were exposed for 12 hours to serum obtained from Kawasaki patients in acute crisis (between 2-6 days), supplemented or not with 1 μM of ATT. In parallel, cardiomyocytes were exposed to serum from Wegener's disease patients or from convalescent Kawasaki patients, under the same conditions.
# The CardioPRIME™ protocol, run on a MultiCell platform by IonOptix, allows to measure several parameters. Upon electrical field stimulation to elicit contractions (tracked by the shape change in individual cardiomyocytes under optical bright field microscopy), the contractility transients could be analyzed for changes in contraction in the different conditions (amplitude of sarcomere shortening, peak height, maximum sarcomere departure velocity, maximum sarcomere return velocity, and decay time to 30% and 90% relaxation).
# [3] = system: TNF-α production by LPS-activated human macrophages; assay: TNF-α production by LPS-activated human macrophages (multiplex detection); assay type: cell-based; details: ATT 10 μM, LPS 1 μg/mL, 48 hours, multiplex assay, FIG. 1B
# Experimental: as §1, §2
# [4] = system: pulmonary arterial rings from rats with PH; assay: Chronic endothelium dysfunction by hypobaric hypoxia, in vivo minipump treatment, ex vivo 5-HT reactivity; details: 3 weeks hypobaric hypoxia, ATT 0.7 mg/mL by abdominal minipump, no ATT in the organ bath, FIG. 4
# Experimental: In order to investigate the protective effects of ATT on chronic endothelium damage, rats were housed during 3 weeks in hypobaric hypoxia chambers (50 kPa or 10% O2).
# Continuous treatment was induced through a minipump placed in the abdominal cavity to deliver ATT (0.7 mg/mL) or its placebo (sulfobutylether beta-cyclodextrin) during the whole hypoxia.
# After euthanasia of the animal, pulmonary arterial rings were placed in an organ bath and the reactivity of the vessel was investigated by using cumulative concentration-response curve with 5-HT (10 nM to 100 μM). This ex vivo part of the study was conducted without any addition of ATT in the organ bath, meaning that the effect was exclusively related to the chronic in vivo treatment through the minipump.
# pulmonary arterial rings [5] = assay: 5-HT contractile reactivity of pulmonary arterial rings with endothelium dysfunction (organ bath); parameters: species or system Wistar rats; details: ATT 10 μM, 30 minutes preincubation
# Experimental: (§3) Intrapulmonary arteries of the first order (IPA1) of Wistar rats (male, 300 g) were divided into short tubular segments with an external diameter of ≈1.5-2 mm and used for isometric contraction measurement.
# (§4) Arterial rings were mounted in isolated organ bath systems (EMKA Technologies), containing Krebs solution (118 mM NaCl, 4.7 mM KCl, 1.2 mM MgSO4, […], 1.2 mM KH2PO4, 2.5 mM CaCl2), and 11 mM D-glucose, pH 7.4) at 37° C. and bubbled continuously with […].
# (§5) Arterial rings were stretched to a basal tension of 0.8 to 1.0 g according to their diameter. Tissues were allowed to equilibrate for 1 hour in Krebs solution and washed out every 15 minutes. A high KCl solution (80 mM) was applied in order to obtain a reference contraction used to normalize subsequent contractile responses.
# (§6) At the end of the experiment, endothelial function was tested on each ring by examining the relaxation induced by carbamylcholine, a potent vascular relaxing agent (100 μM; Sigma) on 1 μM or 30 nM Phe-induced pre-constricted pulmonary arterial rings. Passive and active mechanical properties were assessed using transducer systems, coupled to IOX2 software (v2.10.8, EMKA technologies, Paris, France) in order to facilitate data acquisition and analysis. Data were then analyzed using two-way ANOVA with Bonferroni post-tests (Prism 5 v.5.01).
# Contractile responses were tested by constructing a cumulative concentration-response curve (CCRC) to 5-hydroxytryptamine [5-HT] (10 nM to 100 μM; Sigma). When indicated, tissues were preincubated during 30 minutes with ATT (10 μM), and then CCRC to 5-HT was performed in the presence or absence of the drug.
# Evaluation of the role of endothelium on ATT effect was assessed using N^ω-nitro-L-arginine methyl ester [L-NAME] (100 μM, 30 minutes preincubation; Sigma) to inhibit nitric oxide-dependent relaxation, or 3-[(3-cholamidopropyl) dimethylammonio]-1-propanesulfonate [CHAPS] (0.3% in water, perfusion before mounting; Sigma) to physically damage the endothelium.
# pulmonary arterial rings [6] = assay: Relaxation of phenylephrine pre-constricted pulmonary arterial rings (organ bath); parameters: species or system Wistar rats
# Experimental: as §3, §4, §5
# Relaxation was assessed by injecting ATT (10 μM) on phenylephrine [Phe] (30 nM; Sigma) pre-constricted pulmonary arterial rings when contraction reached its steady-state.
# as §6, with “The role” for “At the end”, “endothelium on ATT relaxant effect was assessed as aforementioned with L-NAME pre-incubation or CHAPS perfusion. Endothelial” for “the experiment, endothelial”, “100 μM carbamylcholine (Sigma)” for “carbamylcholine, a potent vascular relaxing agent (100 μM; Sigma)”
# [7] = system: IL-10 production by LPS-activated human macrophages; assay: IL-10 production by LPS-activated human macrophages (multiplex detection); assay type: cell-based; details: ATT 10 μM, LPS 1 μg/mL, 48 hours, multiplex assay, FIG. 1C
# Experimental: as §1, §2
Structure (SMILES),production of TNF-α vs. LPS-activated condition [1] [%],"loss of contractility (peak height, sarcomere shortening, maximum sarcomere departure velocity) ([2]; FIGS. 6A-C)","loss of relaxation (maximum sarcomere return velocity, decay time to 90% and 30% relaxation) ([2]; FIGS. 6D-F)",TNF-α level in LPS-activated human macrophages [3] [%],hyper-reactivity of the vessel induced by 5-HT after chronic hypoxia [4],"5-HT concentration response curve and maximum efficacy in presence of ATT and CHAPS (pulmonary arterial rings [5]; CHAPS 0.3%, compared with normal endothelium function, FIG. 2A)","5-HT concentration response curve with L-NAME (pulmonary arterial rings [5]; L-NAME 100 μM, FIG. 2B)","maximum effect of 5-HT with L-NAME (pulmonary arterial rings [5]; L-NAME 100 μM, FIG. 2B)","amplitude of relaxation, ATT vs. CHAPS+ATT (pulmonary arterial rings [6]; ATT 10 μM on 30 nM phenylephrine pre-constricted rings, FIG. 3)","effect of pre-treatment with L-NAME or CHAPS on the relaxation mediated by the substance (pulmonary arterial rings [6]; ATT 10 μM on 30 nM phenylephrine pre-constricted rings, L-NAME 100 μM or CHAPS 0.3%, FIG. 3)",production of IL-10 [7] [%],"relaxation under endothelium dysfunctions induced by L-NAME or CHAPS (pulmonary arterial rings [6]; carbamylcholine 100 μM, Phe pre-constricted rings, data not shown)"
"COc1ccc(-c2cc(=S)ss2)cc1 [ATT, 5-(4-methoxyphenyl)-3H-1,2-dithiole-3-thione]",−88,prevent this loss of contractility,prevent the loss of relaxation,−51.2,fully abolished,not significantly different,markedly shifted,significantly reduced,similar,failed 1 to affect,−60.3,–
C[N+](C)(C)CCOC(N)=O.[Cl-] [carbamylcholine],–,–,–,–,–,–,–,–,–,–,–,fully abolished

# Source: patent publication US20240335421A1, “ANETHOLE TRITHIONE FOR THE TREATMENT OF VASCULITIDES” (FRÉDÉRIC MARIN, priority 2021, published 2024)
